The values below are quoted from earlier work in patent US8748582B2, “Affinity ligands and methods for protein purification” (Monash University, priority 2009, dated 2014).

The data set has as its target IgG. The note with it: read-out: dissociation constant for IgG.

Regarding “Protein A: bacterial Fc receptor used as immobilised affinity ligand for antibodies”, the Kd is 0.1 µM.
